Here are results for one molecule from PMC8961568 (Biomolecules, 2022).

The target in the test is T1, HQDS.b. (Streptomyces bingchenggensis, UniProt D7BW96).
T1 construct: gene SBI_08688; His8-TEV tagged (pET28b), E. coli BL21(DE3), Ni-NTA purified
T1 sequence (D7BW96 1-278): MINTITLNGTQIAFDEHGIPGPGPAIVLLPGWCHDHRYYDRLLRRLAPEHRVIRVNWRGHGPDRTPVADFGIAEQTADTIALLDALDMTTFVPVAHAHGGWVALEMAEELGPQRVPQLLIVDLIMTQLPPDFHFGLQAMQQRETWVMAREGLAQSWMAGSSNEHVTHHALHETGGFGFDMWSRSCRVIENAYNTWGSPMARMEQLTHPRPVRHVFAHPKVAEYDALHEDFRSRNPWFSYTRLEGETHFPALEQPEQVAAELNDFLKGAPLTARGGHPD
Kind of test: spectrophotometric PQS consumption at […] nm. The settings on record: 50 mM Tris, 2 mM EDTA, 10% PEG 1500, pH 8.0, 30 °C. Type of test: biochemical.

As for `CCCCCCCc1[nH]c2ccccc2c(=O)c1O` [PQS, 2-heptyl-3-hydroxy-4(1H)-quinolone], the KM result was “HQDS.b., which exhibits the lowest KM towards PQS among the enzymes tested (Table S1)”.
